From patent publication US11160767B2, “4,4′-trans-dihydroxystilbene for use in treating cancer” (The George Washington University, a Congressionally …, priority 2017, dated 2021)

Tests used:
HCT116 = assay: In vitro cytotoxicity (SRB assay), HCT116; format: cell-based; conditions: Homo sapiens, HCT-116, 72 hours
Method: (§1) Cell lines and cell culture. HCT116, U205, PANC-1, MDA-231 cell lines were purchased from the American Type Culture Collection (Rockville, Md., US). Cells were cultured in the DMEM medium (Lonza, Basel, Switzerland) containing 10% fetal bovine serum (Gibco, Grand Island, N.Y., US), 100 Units/ml penicillin, 100 Units/mL streptomycin, […] L-glutamine (Gibco, Grand Island, N.Y., US) at 37° C. in a humidified atmosphere with 5% CO2.
(§2) In vitro cytotoxicity assays. […] SRB assay (Vichai and Kirtikara, 2006) was performed and the absorbance at 510 nm was read with a plate reader. The proliferation rate was calculated according to the Manufacturer's instruction. The IC50 value for each compound was determined from dose-effect relationship using the CompuSyn software (version 1.0.1; CompuSyn, Inc, Paramus, N.J.) (Chou, 2006). Cell proliferating doubling time was monitored over a period of 72 hours.

MDA-231/GFP = assay: In vitro cytotoxicity (SRB assay), MDA-231/GFP; format: cell-based; conditions: Homo sapiens, MDA-MB-231, 72 hours
Method: as §1, §2

PANC-1 = assay: In vitro cytotoxicity (SRB assay), PANC-1; format: cell-based; conditions: Homo sapiens, 72 hours
Method: as §1, §2

RPK-9 cells = assay: Combination DHS and gemcitabine, CI, RPK-9 cells; format: cell-based, human; conditions: RPK-9, in vitro, 10 μM DHS
Method: In vitro cytotoxicity assays. Cells growing in the Log phase were treated with various compounds at different concentrations (generally 0.137 to 100 μM) for 72 hours at 37° C. SRB assay (Vichai and Kirtikara, 2006) was performed and the absorbance at 510 nm was read with a plate reader. The proliferation rate was calculated according to the Manufacturer's instruction. The IC50 value for each compound was determined from dose-effect relationship using the CompuSyn software (version 1.0.1; CompuSyn, Inc, Paramus, N.J.) (Chou, 2006). Cell proliferating doubling time was monitored over a period of 72 hours.
Next, the effect of combined treatment with DHS and gemcitabine on pancreatic tumor cells was investigated.

SKOV3-CP7 = assay: DHS and cisplatin, SKOV3-CP7 cells; format: cell-based, human
From the text: The effect of DHS on a human SKOV3 ovarian cell line and its cisplatin-resistant subline, SKOV3/CP7, was investigated.

HCT116 xenograft tumor = HCT116 xenograft tumor model; format: in vivo, nude mice; conditions: Day 38; DHS 50 mg/kg i.p. 14 consecutive days; cisplatin 8 mg/kg i.p.
Method: Xenograft mouse models. […] In xenograft studies, HCT116 (3×10^6 cells) and IGROV3/CP2 (5×10^6 cells) suspended in 100 μl of phosphate buffered saline (PBS, pH 7.4) were injected subcutaneously into the lower flank of the mice. Testing compounds were dissolved in DMSO/Tween 80/saline (10:10:80; v/v/v) buffer and were used to treat animals through intraperitoneal (i.p.) injection. […] The body weight of animals was measured throughout the study. Tumor diameters were measured with digital calipers, and the tumor volume in mm^3 was calculated by the formula: Volume=(width)^2×length/2.
HCT116 cells (5×10^6) were injected subcutaneously in nude mice and grown to approximately 100 mm^3 in volume. […] To study the preclinical toxicity of DHS, samples of hearts, livers, spleens, lung, and kidneys were collected on Day 38 and sections were stained for histological examination.

HCT116 cells = assay: DNA fiber assay; format: cell-based, human
Method: Thus, the effect of DHS on DNA replication and cell cycle progression was investigated. Replication fork speeds were examined by DNA fiber assay (FIG. 7A). Briefly, DHS, hydroxyurea (Hu), or Aphidicolin (Aph) was added to HCT116 cells 2 hours prior to labeling of DNA with iododeoxyuridine (IdU) and/or chlorodeoxyuridine (CldU).

And-1 protein = And-1 protein level by Western blot; format: cell-based; conditions: U2OS and HCT116 cells
Method: Western blot analysis. Compound-treated cells were harvested and lysed. Protein extracts were subjected to electrophoresis in a SDS-polyacrylamide gel. The resolved proteins were transferred onto polyvinylidene difluoride membranes (Amersham Biosciences, Piscataway, N.J., US). After the blocking step, membranes were incubated with primary IgG antibodies, washed, and then incubated with horseradish peroxidase-conjugated anti-rabbit IgG or anti-mouse IgG secondary antibodies. Western blot signals were visualized by chemiluminescence using SuperSignal West Pico chemiluminescence reagent (Pierce, Rockford, Ill., US).
The effect of DHS treatment on And-1, RRM1, and RRM2 expression was investigated.

purified RRM2 protein = purified RRM2 protein (Homo sapiens, UniProt P31350); assay: In vitro thermal shift assay with purified protein; format: binding; conditions: purified RRM1 and RRM2 mixed, incubated 4 hours
Chain of purified RRM2 protein (P31350 whole entry, species assumed): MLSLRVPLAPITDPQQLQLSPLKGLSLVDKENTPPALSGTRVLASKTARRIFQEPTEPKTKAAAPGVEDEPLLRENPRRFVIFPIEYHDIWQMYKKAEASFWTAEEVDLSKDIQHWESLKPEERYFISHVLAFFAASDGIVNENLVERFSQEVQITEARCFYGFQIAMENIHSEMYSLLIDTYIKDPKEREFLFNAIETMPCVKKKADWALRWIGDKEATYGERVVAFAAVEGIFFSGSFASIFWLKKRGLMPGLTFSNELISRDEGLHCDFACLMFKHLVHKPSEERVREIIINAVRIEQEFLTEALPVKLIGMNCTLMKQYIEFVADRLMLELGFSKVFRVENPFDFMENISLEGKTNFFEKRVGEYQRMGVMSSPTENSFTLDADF
Method: To investigate binding of DHS to RRM1 and RRM2, a thermal shift assay was performed in HCT116 cells treated with DMSO (vehicle), resveratrol, DHS, gemcitabine, or hydroxyurea (Hu). Gemcitabine is known to bind RRM1 (Plunkett et al., 1995 and Chen et al., 2011), and Hu has been reported to bind RRM2 (Thelander et al., 1985). […] DHS stabilized RRM2 protein in a dose responsive manner (5 to 20 μM DHS; FIG. 11A). To rule out nonspecific effects of DHS on RRM2, an in vitro thermal shift assay was conducted. Purified RRM1 and RRM2 were mixed and then incubated with DHS or Hu for 4 hours before performing the assay.

KB, KB-Gem and KB-Hu = assay: Cell survival of KB and resistant sublines; format: cell-based
Method: An oral cancer cell line, KB, and its gemcitabine-resistant and hydroxyurea resistant sublines, KB-Gem and KB-Hu, respectively, were treated with gemcitabine (FIG. 15A), hydroxyurea (FIG. 15B), or DHS (FIG. 15C).
Next, the effect of combined treatment with DHS and Gemcitabine or Hydroxyurea was investigated.

Stabilisation of purified RRM2 after high temperature incubation (purified RRM2 protein): stabilized purified RRM2 protein
Structure (SMILES): Oc1ccc(/C=C/c2ccc(O)cc2)cc1 [DHS, 4,4′-trans-dihydroxystilbene]
IC50 (HCT116): 2.3 ± 0.78 µM
IC50 (MDA-231/GFP): 5.32 ± 3.38 µM
IC50 (PANC-1): 22 ± 6.42 µM
Resensitisation to gemcitabine (RPK-9 cells): resensitized the gemcitabine-resistant pancreatic cancer line, RPK-9, to gemcitabine
Re-sensitisation to cisplatin (SKOV3-CP7): re-sensitized the SKOV3/CP7 cells to cisplatin
Sensitivity to DHS alone (SKOV3-CP7): sensitive to DHS treatment alone
Reduction in tumor volume as compared with the vehicle control group (HCT116 xenograft tumor): ~50%
Rate of replication fork progression (folk speed) (HCT116 cells): significantly reduced
DNA replication stalling (HCT116 cells; added 2 hours prior to labeling): dramatically caused DNA replication stalling
And-1 protein level (And-1 protein): caused down-regulation of And-1 protein
Cell survival of resistant sublines (KB, KB-Gem and KB-Hu; KB, KB-Gem, KB-Hu, DHS alone): overcame gemcitabine and hydroxyurea resistance
Resensitisation to gemcitabine and hydroxyurea (KB, KB-Gem and KB-Hu; KB-Gem and KB-Hu, 10 μM DHS): resensitized cultured KB-gem and KB-Hu cell lines to gemcitabine and hydroxyurea
